Here are results for four compounds from publication PMC4237514, “Novel amino-β-lactam derivatives as potent cholesterol absorption inhibitors” (European Journal of Medicinal Chemistry, 2014).

What all share (type): cell-based
Series [1] is described as follows: MTT cytotoxicity in combination with micelles. As to conditions: dog, MDCKII wildtype and hNPC1L1/MDCKII cells, Figure S2, read-out: LC50 in combination with micelles. As to the method:
(§1) MDCKII, hNPC1L1/MDCKII, and HepG2 cells were seeded in 96-well microtiter plates on day 0 at densities of 3000 cells/well. On day 1, tested compounds (73 mM stock solution in DMSO) were added in five consecutive 10-fold dilutions (10^−8 to 10^−4 mol/L) and incubated for 72 h. Cytotoxicity of the compounds was assessed on day 4 by the MTT cell proliferation assay (Sigma–Aldrich, Germany) which detects mitochondrial dehydrogenase activity in viable cells. The results are expressed as LC50 and the values for each compound were calculated from dose–response curves using linear regression analysis. Each concentration was tested in quadruplicate in three independent experiments. Toxicity of the compounds in combination with micelles was also tested using the same method. MDCKII and hNPC1L1/MDCKII were seeded in 96-well microtiter plates (150 μL medium/well) at a density of 2 × 10^5 cells/mL medium 24 h before the experiment. Micelles were prepared according to the modified method reported by Field et al.. In brief, 0.25 mM oleic acid, 50 μM cholesterol, 10 μM compactin, 50 μM mevalonate, 5 mM Na-taurocholate (Sigma–Aldrich, Germany) in DMEM/10% FCS were mixed and sonicated. Following the micellar formation, compounds 1, 5, 6, and 5/6 (70:30) (73 mM stock solution in DMSO) were added to the medium and vortexed to obtain the final concentrations of the compounds (25, 50, 100, 150, 200 μM) and applied to the cells for 1 h. Thereafter, cytotoxicity was determined using the MTT assay.
Figure S2. In vitro cytotoxicity of the compounds 5, 6, and 5/6 (70:30) in combination with micelles. Cytotoxicity of the newly synthesized compounds was determined in (A) MDCKII wildtype and (B) hNPC1L1/MDCKII cells. The cells were incubated with the indicated concentrations of the compounds in Medium B (0.25 mM oleic acid, 50 μM free cholesterol, 10 μM compactin, 50 μM mevalonate, 5 mM Na-taurocholate in DMEM supplemented with 5% LPDS) for 1 h. The results are expressed as percentage of the survival of cells treated with the compound compared to untreated cells. Data represent mean ± S.E.M. of three independent experiments.

A short description of series [2]: MTT cytotoxicity assay in HepG2 cells. As to conditions: human, read-out: LC50, HepG2. The protocol: (§2) Cytotoxicity of amino alcohols 5, 6 and their diastereoisomeric mixture 5/6 was analyzed using MTT cell proliferation assay and the LC50 values were determined in MDCKII wild type, hNPC1L1/MDCKII, and HepG2 cells (Table 2). MDCKII cells stably expressing human Niemann-Pick C1-like protein 1 (hNPC1L1/MDCKII) (Figure S1) are a pharmacologically validated system for investigating NPC1L1-mediated cholesterol uptake. The LC50 values were higher than 100 μM and considered nontoxic in all three cell lines. […] In addition, we tested the in vitro cytotoxicity of ezetimibe 1 and compounds 5, 6, and 5/6 (70:30) in combination with micelles and found all LC50 values to be above 100 μM (Figure S2).
(§3) Madin–Darby Canine Kidney II (MDCKII) cells, MDCKII cells stably expressing human NPC1L1 (hNPC1L1/MDCKII), and human HepG2 liver cells were maintained in DMEM (Dulbecco's Modified Eagle Medium, Invitrogen, USA) containing 100 units/mL penicillin and 100 μg/mL streptomycin supplemented with 10% FCS (Sigma–Aldrich, Germany). The cells were grown at 37 °C in a humidified 5% CO2 incubator. Stable transfection of MDCKII cells with human NPC1L1 protein was performed using Lipofectamine LTX (Invitrogen, USA) according to the manufacturer's protocol. Selection with 1 mg/mL G418 (Sigma–Aldrich, Germany) was started 2 days after transfection. The concentration of G418 was decreased to 500 μg/mL after 14 days. Stably transfected cells were maintained in DMEM containing 100 units/mL penicillin and 100 μg/mL streptomycin supplemented with 10% FCS and 500 μg/mL G418.
as §1, with “Following the micellar formation, compounds 1, 5, 6, and 5/6 (70:30) (73 mM stock solution in DMSO) were added to the medium and vortexed to obtain the final concentrations of the compounds (25, 50, 100, 150, 200 μM) and applied to the cells for 1 h.” left out

A short description of series [3]: MTT cytotoxicity assay in hNPC1L1/MDCKII cells. As to conditions: dog, MDCKII cells stably expressing human NPC1L1 (hNPC1L1/MDCKII), read-out: LC50, hNPC1L1/MDCKII. The protocol:
as §2, §3
as §1, with “Following the micellar formation, compounds 1, 5, 6, and 5/6 (70:30) (73 mM stock solution in DMSO) were added to the medium and vortexed to obtain the final concentrations of the compounds (25, 50, 100, 150, 200 μM) and applied to the cells for 1 h.” left out

Consider `O=C1[C@H](NCC(O)c2ccc(F)cc2)[C@@H](c2ccc(O)cc2)N1c1ccc(F)cc1` (mixture of isomers) [5/6 (70:30), (3R,4R)-3-[(2R/S)-2-(4-fluorophenyl)-2-hydroxyethylamino]-1-(4-fluorophenyl)-4-(4-hydroxyphenyl)azetidin-2-one], for which the CC50 at 1 h in series [1] is above 100 µM. In addition, the CC50 at 72 h in series [2] and in series [3] was above 100 µM in each case.

On to `O=C1[C@H](CC[C@H](O)c2ccc(F)cc2)[C@@H](c2ccc(O)cc2)N1c1ccc(F)cc1` [Compound 1, ezetimibe, reference compound], for which, in series [1], the CC50 at 1 h was above 100 µM. The CC50 at 96 h was 69.7 µM in series [2] (72 h) and 62.3 µM in series [3] (72 h).

Regarding `O=C1[C@H](NC[C@H](O)c2ccc(F)cc2)[C@@H](c2ccc(O)cc2)N1c1ccc(F)cc1` [Compound 5], in series [1], the CC50 at 1 h was above 100 µM. Besides, the CC50 at 72 h in series [2] and in series [3] was above 100 µM throughout.

In the case of `O=C1[C@H](NC[C@@H](O)c2ccc(F)cc2)[C@@H](c2ccc(O)cc2)N1c1ccc(F)cc1` [Compound 6, (3R,4R)-3-[(2S)-2-(4-fluorophenyl)-2-hydroxyethylamino]-1-(4-fluorophenyl)-4-(4-hydroxyphenyl)azetidin-2-one], the CC50 at 1 h in series [1] was above 100 µM. Further, the CC50 at 72 h in series [2] and in series [3] was above 100 µM in each case.
